Data set [1] relates to MCF7. Briefly: Cell cycle arrest in human MCF7 cells assessed as accumulation at G1 phase at 3 uM after 24 hrs by propidium iodide/RNase A staining-based flow cytometric analysis (reference value: 52.21%). In kind it is functional.
The test system of data set [2] is MCF7. Briefly: Induction of apoptosis in human MCF7 cells assessed as late apoptotic cells at 6 uM after 48 hrs by Annexin-V-FITC/propidium iodide staining based flow cytometry (reference value: 4.28%). In kind it is functional.
Data set [3] deals with MDA-MB-231. Briefly: Effect on total AKT protein level in human MDA-MB-231 cells up to 12 uM after 8 hrs by Western blot analysis. As to conditions: mda-mb-231, 8 h. In kind it is ADME, cell-based. On the technique in general: In western blotting, separated proteins are transferred to a membrane and probed.
Data set [4] concerns MCF7. Briefly: Cell cycle arrest in human MCF7 cells assessed as accumulation at S phase at 6 uM after 24 hrs by propidium iodide/RNase A staining-based flow cytometric analysis (reference value: 17.17%). In kind it is functional. In general terms: In flow cytometry, cells or beads pass a laser one at a time.
For data set [5], the target named is Epidermal growth factor receptor (Homo sapiens) (UniProt P00533). Briefly: Inhibition of EGFR phosphorylation at Y1045 residues in human MCF7 cells after 8 hrs by Western blot analysis. In kind it is cell-based.
Another data set concerns HGC-27. Briefly: Cytotoxicity against human HGC27 cells assessed as reduction in cell viability after 72 hrs by MTT assay. In kind it is functional, cell-based. As to conditions: HGC-27, 72 h. In general terms: Tetrazolium dyes change colour on reduction, which living cells bring about.
The subject of data set [6] is MDA-MB-231. Briefly: Induction of apoptosis in human MDA-MB-231 cells assessed as increase in ROS generation up to 8 uM after 48 hrs by DHE dye-based fluorescence microscopic analysis. In kind it is functional, cell-based.
Data set [7] relates to MDA-MB-231. Briefly: Inhibition of colony formation in human MDA-MB-231 cells at 9 uM after 7 days by crystal violet staining based microscopic analysis. It is filed as functional, cell-based.
Data set [8] deals with MCF7. Briefly: Inhibition of colony formation in human MCF7 cells at 9 uM after 7 days by crystal violet staining based microscopic analysis. In kind it is functional, cell-based.
Data set [9] has as its system MDA-MB-231. Briefly: Antimigratory activity against human MDA-MB-231 cells assessed as reduction in scratch healing after 72 hrs by microscopy based scratch wound assay. In kind it is functional, cell-based.
For data set [10], the system named is MCF7. Briefly: Cell cycle arrest in human MCF7 cells assessed as accumulation at S phase at 12 uM after 24 hrs by propidium iodide/RNase A staining-based flow cytometric analysis (reference value: 17.17%). It is filed as functional.

Molecules are shown by their SMILES. The source made the active and inactive calls. The calls are words filed in the database; no cut-off is given here.

Sequence of Epidermal growth factor receptor (Homo sapiens) (P00533 whole entry): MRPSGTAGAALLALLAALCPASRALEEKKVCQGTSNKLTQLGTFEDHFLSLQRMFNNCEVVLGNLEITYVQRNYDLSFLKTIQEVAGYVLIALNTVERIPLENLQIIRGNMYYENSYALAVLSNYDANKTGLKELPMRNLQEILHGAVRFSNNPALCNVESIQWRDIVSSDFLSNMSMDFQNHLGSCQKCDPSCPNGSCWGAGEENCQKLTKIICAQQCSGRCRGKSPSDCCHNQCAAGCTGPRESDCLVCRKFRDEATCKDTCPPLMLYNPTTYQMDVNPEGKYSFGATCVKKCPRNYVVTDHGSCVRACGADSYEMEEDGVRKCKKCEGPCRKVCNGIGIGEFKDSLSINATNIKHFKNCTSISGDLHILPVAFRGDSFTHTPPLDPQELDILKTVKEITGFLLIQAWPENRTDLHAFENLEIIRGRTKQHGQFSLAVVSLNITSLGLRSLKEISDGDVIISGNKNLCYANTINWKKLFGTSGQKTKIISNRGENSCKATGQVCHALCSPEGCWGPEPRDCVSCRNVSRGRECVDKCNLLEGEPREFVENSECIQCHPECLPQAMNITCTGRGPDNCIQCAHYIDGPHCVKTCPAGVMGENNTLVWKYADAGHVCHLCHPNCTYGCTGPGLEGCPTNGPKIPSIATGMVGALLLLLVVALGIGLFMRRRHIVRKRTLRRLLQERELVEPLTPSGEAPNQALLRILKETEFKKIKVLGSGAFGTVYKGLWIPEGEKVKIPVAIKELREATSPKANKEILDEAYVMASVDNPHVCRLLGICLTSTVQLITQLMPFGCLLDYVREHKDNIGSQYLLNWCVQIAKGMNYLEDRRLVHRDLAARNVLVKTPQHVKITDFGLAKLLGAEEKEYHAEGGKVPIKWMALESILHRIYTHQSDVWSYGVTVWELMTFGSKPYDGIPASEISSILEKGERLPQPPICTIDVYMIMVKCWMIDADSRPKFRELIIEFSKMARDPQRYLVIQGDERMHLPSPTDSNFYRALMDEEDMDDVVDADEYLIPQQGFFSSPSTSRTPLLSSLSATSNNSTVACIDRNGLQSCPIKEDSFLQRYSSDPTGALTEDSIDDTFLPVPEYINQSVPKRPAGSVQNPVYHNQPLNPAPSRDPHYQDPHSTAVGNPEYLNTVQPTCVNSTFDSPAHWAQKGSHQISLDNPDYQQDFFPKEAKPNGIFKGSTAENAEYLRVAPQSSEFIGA

By IC50 is commonly meant the concentration at which inhibition is half-maximal. `FC(F)(F)c1ccc(CSc2nc(Nc3ccc(C(F)(F)F)cc3)c3ccccc3n2)cc1`: the Activity in the data set on MCF7 [1] is 59.18%; in the data set with MCF7 [2], 10.6%; in the data set with MDA-MB-231 [3], “Non-Toxic”; with MCF7 [4] it was 19.52%; in the data set with MDA-MB-231 [9], “Dose-dependent effect”; in the data set on MCF7 [10] it was 10.65%. The inhibition entry in [5] is “Dose-dependent effect”. In addition, the concentration for half-maximal inhibition (IC50) in the data set with HGC-27 was found to be 7.56 µM. Also, the result with MDA-MB-231 [6] was Active. The “growth inhibition (GI)” value with MDA-MB-231 [7] and in the data set with MCF7 [8] was “Active” in each case.

These data come from ChEMBL document CHEMBL4393664, “2,4-Disubstituted quinazolines targeting breast cancer cells via EGFR-PI3K” (Eur J Med Chem, 2019).
